# Data: article PMC4440792 (ChemMedChem, 2014)
# Ends that are not written are not given here.
# Test system: human red blood cells
# Assay: Hemolytic assay
# Format: cell-based
# Settings: human RBCs in PBS, 37°C, 1 h; representative of 4 independent determinations
row,Compound,HD10 (peptide concentration that results in lysis of 10% red blood cells) [μm]
1,CC(C)C[C@H](NC(=O)[C@H](CCCCN)NC(=O)[C@H](C)NC(=O)[C@H](CC(C)C)NC(=O)[C@H](CCCCN)NC(=O)[C@H](CCCCN)NC(=O)[C@H](C)NC(=O)[C@H](CC(C)C)NC(=O)[C@H](CCCCN)NC(=O)[C@H](C)NC(=O)[C@H](CC(C)C)NC(=O)[C@@H](N)CCCCN)C(=O)N[C@@H](C)C(=O)N[C@@H](CCCCN)C(N)=O [PAP],64
2,GGHGLLKRIKTLL-NH2 [GGH–anoplin],16
3,GLLKRIKTLL-NH2 [Anoplin],>64
4,RAGLQFPVGRVHRLLRK-NH2 [sh-Buforin],64
